Laboratory results from patent US9486440B2, “Uses of indole-ketones or indolidones as neuro-protective drugs” (UNIVERSITY OF MACAU, priority 2011, dated 2016).
pIC50: −log10 of the molar value. “Also recorded” adds a separate entry of the source.

Assays:
zebrafish larvae = assay: Locomotion behavioral test of zebrafish larvae; assay type: in vivo; conditions: for MPTP-induced deficit of swimming behavior (total distance travelled): 200 μM MPTP 2 days, then 10 μM MPTP plus drug 3 days, L-deprenyl 20 μM, L-dopa 150 μM
Method: (§1) Wild-type zebrafish (AB strain) and Tg (fli-1:EGFP) transgenic zebrafish were maintained as described in the Zebrafish Handbook (Westerfield, 1993). Zebrafish embryos were generated by natural pair-wise mating (3-12 months old) and raised at 28.5° C. in embryo medium (13.7 mM NaCl, 540 μM KCl, pH 7.4, 25 μM Na2HPO4, 44 μM KH2PO4, 300 μM CaCl2, 100 μM MgSO4, 420 μM NaHCO3, pH 7.4). […] An equal concentration of DMSO in embryo medium was used as vehicle control in each experiment.
Thus the MPTP exposure needs to last 5 day from 1 dpf. […] Thus subsequent locomotion behavioral studies were done with 200 μM MPTP for treatment for 2 days at 1 dpf then replacing insult with 10 μM MPTP for incubation for another 3 days.
(§2) After drug treatment, zebrafish larvae at 6 dpf were transferred into 96-well plates (1 fish/well and 12 larvae/group). Fishes responded with excessive stress reaction (such as rapid and disorganized swimming or immobility for 2 min) due to the handling and monitoring of the behavior were discarded. The experiments were performed in a calm enclosed area. The larvae were allowed to habituate to the new environment for 30 min prior to experiments. Behavior was monitored by an automated video tracking system (Viewpoint, ZebraLab, LifeSciences). The 96-well plates and camera were housed inside a Zebrabox and the swimming pattern of each fish was recorded for 10 min and repeated 3 times, once every other 10 min. The total distance moved was defined as the distance (in cm) that the fish had moved during one session (10 min).
Normally as late as 3 dpf, zebrafish larvae show very little spontaneous swimming, but by 5 dpf they spontaneously swim longer distances and independently search for food. The MPTP exposure therefore needs to last 5 days from 1 dpf. […] Thus subsequent locomotion behavioral studies were performed with 200 μM MPTP for 2-day treatment at 1 dpf then replacing with media containing 10 μM MPTP for another 3-day incubation.
as §2, with “The larvae were discarded due to” for “Fishes responded with”, “reaction to the handling and monitoring of behavior” for “reaction”, “min).” for “min) due to the handling and monitoring of the behavior were discarded.”, “sealed” for “enclosed”, “min. Swimming behavior” for “min prior to experiments. Behavior”, “for” for “repeated”

CGNs [1] = assay: MPP+-induced neurotoxicity in CGNs, MTT and LDH assays; assay type: cell-based, rat; conditions: pre-treatment 2 hours, then 35 μM MPP+ for 24 hours
Method: (§3) All animal experiments were conducted according to the ethical guidelines of ICMS, Macau University and the Animal Care Facility, The Hong Kong Polytechnic University. Rat CGNs were prepared from 8-day-old Sprague-Dawley rats (The Animal Care Facility, The Hong Kong Polytechnic University) as described by Li et al., 2005. Briefly, neurons were seeded at a density of 2.7×10^5 cells/ml in basal modified Eagle's medium (Invitrogen) containing 10% fetal bovine serum, 25 mM KCl, 2 mM glutamine, and penicillin (100 units/ml)/streptomycin (100 μg/ml). Cytosine arabinoside (10 μM) was added to the culture medium 24 hour after plating to limit the growth of non-neuronal cells. With the use of this protocol, more than 95% of the cultured cells were granule neurons.
(§4) The percentage of surviving neurons in the presence of SU4312 and/or MPP^+ was estimated by determining the activity of mitochondrial dehydrogenases with 3(4,5-dimethylthiazol-2-yl)-2.5-diphenyltetrazolium bromide (MTT) assay (Li et al., 2007). The assay was performed according to the specifications of the manufacturer (MTT kit I; Roche Applied Science). Briefly, the neurons were cultured in 96-well plates, 10 μl of 5 mg/ml MTT labeling reagent was added to each well containing cells in 100 μl of medium, and the plates were incubated for 4 hours in a humidified incubator at 37° C. After the incubation, 100 μl of the solvating solution (0.01 N HCl in 10% SDS solution) was added to each well for 16-20 hours. Absorbance of the samples was measured at a wavelength of 570 nm with 655 nm as a reference wavelength. Unless otherwise indicated, the extent of MTT conversion in cells exposed to MPP^+ is expressed as a percentage of the control.
Cytotoxicity was determined by measuring the release of lactate dehydrogenase (LDH). Briefly, cells were precipitated by centrifugation at 500 g for 5 min at room temperature, 50 μl of the supernatants was transferred into new wells, and LDH was determined using the in vitro toxicology assay kit (Roche). The absorbance of the samples was measured at a wavelength of 490 nm with 655 nm as a reference wavelength.
as §3, with “Rat” for “All animal experiments were conducted according to the ethical guidelines of ICMS, Macau University and the Animal Care Facility, The Hong Kong Polytechnic University. Rat”, “hours” for “hour”
as §4, with “The” for “The percentage of surviving neurons in the presence of SU4312 and/or MPP^+ was estimated by determining the activity of mitochondrial dehydrogenases with 3(4,5-dimethylthiazol-2-yl)-2.5-diphenyltetrazolium bromide (MTT) assay (Li et al., 2007). The”, “incubated at 37° C.” for “incubated”, “incubator.” for “incubator at 37° C.”, “The absorbance” for “Absorbance”

VEGFR-2 = conditions: cited from earlier work
CGNs [2] = assay: Low potassium-induced cell death in CGNs, MTT assay; assay type: cell-based; conditions: 5 mM KCl BME medium, 24 hours; sunitinib 0.1-2 μM
Method: Cell viability was measured by MTT assay at 24 hours after low potassium challenge. […] After 24 hours of low potassium challenge, CGNs were assayed with an FDA/PI double staining. […] After 24 hours of low potassium challenge, CGNs were assayed with Hoechst staining. The number of apoptotic nuclei with condensed chromatin were counted from representative Hoechst staining photomicrographs and represented as a percentage of the total number of nuclei counted. […] Intracellular NO level was measured using DAF-FM diacetate as a probe at 4 hour after low potassium challenge. Data, expressed as percentage of control (CGNs were cultured in high potassium medium), were the mean±SEM of three separate experiments; *p<0.05 and **p<0.01 versus low potassium group in (A) and (D) or versus control in (C); ^##p<0.01 versus low potassium group in (C) (Turkey's test).
It was previously reported that low potassium could induce typical apoptosis in cerebellar granule neurons (CGNs) (Fu et al., 2008). […] Cell viability was measured with an MTT assay 24 hours after the low potassium treatment.

[3] = system: DA neurons in the zebrafish brain; assay: MPTP zebrafish, whole-mount immunostaining against tyrosine hydroxylase; assay type: in vivo; conditions: 200 μM MPTP, 2 days from 1 dpf; SU4312 3-30 μM, PTK787/ZK222584 0.3-3 μM, SU5416 0.1-1 μM, VRI 0.03-0.3 μM
Method: as §1

[4] = system: intersegmental-vessel (ISV) formation; assay: Intersegmental-vessel formation in Tg(fli-1:EGFP) zebrafish; assay type: in vivo; conditions: 1 dpf embryos treated 48 hours; SU4312 3-30 μM, PTK787/ZK222584 0.3-3 μM, VRI 0.1-0.3 μM, SU5416 0.3-1 μM
Method: as §1
(§5) After drug treatment, zebrafish were removed from microplate and observed for gross morphological changes of blood vessel under a fluorescence microscope (Olympus am Motorized Inverted Microscope, Japan) equipped with a digital camera (DP controller, Soft Imaging System, Olympus). Images were analyzed with Axiovision 4.2 and Adobe Photoshop 7.0.
(§6) Wild-type zebrafish (AB strain) and Tg(fli-1:EGFP) transgenic zebrafish were maintained as described in the Zebrafish Handbook (Westerfield, 1993). Zebrafish embryos were generated by natural pair-wise mating (3-12 months old) and were raised at 28.5° C. in embryo medium (13.7 mM NaCl, 540 μM KCl, pH 7.4, 25 μM Na2HPO4, 44 μM KH2PO4, 300 μM CaCl2, 100 μM MgSO4, 420 μM NaHCO3, pH 7.4). […] Equal concentration of DMSO in embryo medium was used as vehicle control in each experiment.
as §5, with “from the” for “from”

zebrafish = assay: Toxicity to zebrafish; assay type: in vivo; conditions: SU5416 10 μM, VRI 3 μM, SU4312 up to 30 μM
Method: as §1, §6

nNOS = nNOS (Homo sapiens, UniProt P29475); conditions: cited from earlier work
iNOS = iNOS (Homo sapiens, UniProt P35228); conditions: cited from earlier work

Structure (SMILES) | MPTP-induced deficit of swimming behavior (total distance travelled) (zebrafish larvae) | MPP+-induced cell death (cell viability, MTT and LDH assays) (CGNs [1]) | pIC50 (VEGFR-2) | other results
C#CCN(C)[C@H](C)Cc1ccccc1 [L-deprenyl] | rescued | – | – | –
N[C@@H](Cc1ccc(O)c(O)c1)C(=O)O [levodopa] | rescued | – | – | –
CC(=N)NCc1cccc(CN)c1 [1400W] | – | failed to block neuronal death; also recorded: did not show protection | – | –
CN(C)c1ccc(/C=C2/C(=O)Nc3ccccc32)cc1 [trans-SU4312] | – | – | 5.28 | –
CNC(=N)NCCC[C@H](N)C(=O)O [L-NMMA] | – | – | – | low potassium-induced cell death (MTT) (CGNs [2]): at 10-20 μM prevented low potassium-induced neuronal death in CGNs
CN(C)c1ccc(/C=C2\C(=O)Nc3ccccc32)cc1 [cis-SU4312] | – | – | 6.10 | –
O=C1Nc2ccc(Br)cc2/C1=C/c1cc2c([nH]1)CCCC2 [VRI] | but not VRI ameliorated the MPTP-induced deficit of swimming behavior | at 1 and 3 μM failed to block neuronal loss in vitro | 4.15 | MPTP-induced loss of DA neurons / decrease of TH+ region area [3]: could not prevent MPTP-induced decrease in TH^+ region area; swimming behavior of normal zebrafish larvae, drug alone (zebrafish larvae; zebrafish, in vivo): Neither SU5416 nor VRI treatment alone notably altered the swimming behavior; inhibition of intersegmental-vessel (ISV) formation [4]: inhibited the formation of intersegmental-vessels; toxicity to zebrafish (zebrafish): showed toxicity to zebrafish
CCSC(=N)N [EPTU, 2-ethyl-2-thiopseudourea] | – | prevented MPP^+-induced neuronal death in CGNs | – | pIC50 (nNOS): 7.44; pIC50 (iNOS): 7.77
